Assay results: publication PMC6332235, “Phosphonylated Acyclic Guanosine Analogues with the 1,2,3-Triazole Linker” (Molecules, 2015)
Read-outs that look alike come from different tables or passages of the source.

Legend:
[1] = system: human T-lymphocyte CEM cells; assay: Cytostatic activity: inhibition of proliferation of human T-lymphocyte CEM cells; type: cell-based; conditions: read-out: IC50 (CEM)
Description: (§1) The cytotoxicity of the tested compounds toward the uninfected host cells was defined as the minimum cytotoxic concentration (MCC) that causes a microscopically-detectable alteration of normal cell morphology. The 50% cytotoxic concentration (CC50), causing a 50% decrease in cell viability, was determined using a colorimetric 3-(4,5-dimethylthiazol-2-yl)-5-(3-carboxymethoxyphenyl)-2-(4-sulfophenyl)-2H-tetrazolium (MTS) assay system. The cytostatic activity of the tested compounds was defined as the 50% cytostatic inhibitory concentration (IC50), causing a 50% decrease in cell proliferation, and was determined against murine leukemia L1210, human T-lymphocyte CEM and human cervix carcinoma HeLa cells (Table 1).
(§2) All assays were performed in 96-well microtiter plates. To each well were added (5−7.5) × 10^4 tumor cells and a given amount of the test compound. The cells were allowed to proliferate for 48 h (murine leukemia L1210 cells) or 72 h (human lymphocytic CEM and human cervix carcinoma HeLa cells) at 37 °C in a humidified CO2-controlled atmosphere. At the end of the incubation period, the cells were counted in a Coulter counter. The IC50 (50% inhibitory concentration) was defined as the concentration of the compound that inhibited cell proliferation by 50%.

[2] = system: murine leukemia L1210 cells; assay: Cytostatic activity: inhibition of proliferation of murine leukemia L1210 cells; type: cell-based
Description: as §1, §2

[3] = system: human cervix carcinoma HeLa cells; assay: Cytostatic activity: inhibition of proliferation of human cervix carcinoma HeLa cells; type: cell-based; conditions: read-out: IC50 (HeLa)
Description: as §1, §2

thymidine phosphorylase = system: thymidine phosphorylase; set-up: method as in PMID 22372816; conditions: cited from earlier work
[4] = Mus musculus, L1210, 48 h, read-out: IC50 (L1210)
[5] = human cervix carcinoma HeLa cells, 72 h proliferation, Coulter counter
[6] = CCRF-CEM, human T-lymphocyte CEM cells, 72 h proliferation, Coulter counter
[7] = Mus musculus, L1210, 48 h, murine leukemia L1210 cells, 48 h proliferation, Coulter counter, read-out: IC50 (L1210)
[8] = Mus musculus, L1210, range over both L1210 and CEM cells and both 17k isomers, read-out: IC50 against proliferation of L1210 and CEM cell lines (range given)
[9] = range over both L1210 and CEM cells and both 17k isomers, read-out: IC50 against proliferation of L1210 and CEM cell lines (range given)

| Molecule | IC50 ([1]; Homo sapiens, CCRF-CEM, 72 h) | IC50 [2, 4] | IC50 ([3]; Homo sapiens, HeLa, 72 h) | further results |
| --- | --- | --- | --- | --- |
| CCOP(=O)(CC(O)Cn1cc(Cn2cnc3c(Cl)nc(N)nc32)nn1)OCC (stereo not shown) [Compound 17f, Diethyl 3-{4-[(2-amino-6-chloro-9H-purin-9-yl)methyl]-1H-1,2,3-triazol-1-yl}-2-hydroxypropylphosphonate] | > 250 µM | > 250 µM | > 250 µM |  |
| CCOP(=O)(COCCn1cc(Cn2cnc3c(=O)[nH]c(N)nc32)nn1)OCC [Compound 16h, Diethyl 2-{4-[(2-amino-6-oxo-1,6-dihydro-9H-purin-9-yl)methyl]-1H-1,2,3-triazol-1-yl}ethoxymethyphosphonate] | > 250 µM | > 250 µM | ≥ 250 µM | melting point: 89 to 92 °C |
| CCOP(=O)(CCn1cc(Cn2cnc3c(Cl)nc(N)nc32)nn1)OCC [Compound 17b, Diethyl 2-{4-[(2-amino-6-chloro-9H-purin-9-yl)methyl]-1H-1,2,3-triazol-1-yl}ethylphosphonate] | > 250 µM | ≥ 250 µM | 227 ± 32 µM |  |
| CCOP(=O)(Cn1cc(Cn2cnc3c(Cl)nc(N)nc32)nn1)OCC [Compound 17a, Diethyl {4-[(2-amino-6-chloro-9H-purin-9-yl)methyl]-1H-1,2,3-triazol-1-yl}methylphosphonate] | ≥ 250 µM | 283 ± 17 µM | ≥ 250 µM |  |
| Diethyl 2-{4-[(2-amino-6-chloro-9H-purin-9-yl)methyl]-1H-1,2,3-triazol-1-yl}-acetamidoethylphosphonate [Compound 17j] |  |  |  | IC50 ([1]; human T-lymphocyte CEM cells, 72 h proliferation, Coulter counter): > 250 µM; IC50 ([2]; murine leukemia L1210 cells, 48 h proliferation, Coulter counter, read-out: IC50 (L1210)): > 250 µM; IC50 [3, 5]: > 250 µM |
| CCOP(=O)(CCCCn1cc(Cn2cnc3c(=O)[nH]c(N)nc32)nn1)OCC [Compound 16d, Diethyl 4-{4-[(2-amino-6-oxo-1,6-dihydro-9H-purin-9-yl)methyl]-1H-1,2,3-triazol-1-yl}butylphosphonate] | > 250 µM | > 250 µM | 148 ± 25 µM |  |
| CCOP(=O)(CC(O)Cn1cc(Cn2cnc3c(=O)[nH]c(N)nc32)nn1)OCC (stereo not shown) [Compound 16f, Diethyl 3-{4-[(2-amino-6-oxo-1,6-dihydro-9H-purin-9-yl)methyl]-1H-1,2,3-triazol-1-yl}-2-hydroxypropylphosphonate] | > 250 µM | > 250 µM | 195 ± 78 µM |  |
| CCOP(=O)(OCC)C(O)CCn1cc(Cn2cnc3c(=O)[nH]c(N)nc32)nn1 (stereo not shown) [Compound 16g, Diethyl 3-{4-[(2-amino-6-oxo-1,6-dihydro-9H-purin-9-yl)methyl]-1H-1,2,3-triazol-1-yl}-1-hydroxypropylphosphonate] | > 250 µM | > 250 µM | 185 ± 35 µM |  |
| Nc1nc(Cl)c2ncn(Cc3cn(C[C@H](OCc4ccccc4)[C@@H](O)P(=O)(OCc4ccccc4)OCc4ccccc4)nn3)c2n1 [(1S,2S)-17k, (1S,2S)-Dibenzyl 3-{4-[(2-amino-6-chloro-9H-purin-9-yl)methyl]-1H-1,2,3-triazol-1-yl}-2-benzyloxy-1-hydroxypropylphosphonate] |  |  |  | melting point: 76 to 78 °C; IC50 [1, 6]: 30 ± 16 µM; IC50 [2, 7]: 16 ± 6 µM; IC50 [2, 8]: 15 to 30 µM; IC50 [2, 9]: 16 to 30 µM; IC50 [3, 5]: 84 ± 12 µM |
| Nc1nc2c(ncn2Cc2cn(CCCCC(F)(F)P(=O)(O)O)nn2)c(=O)[nH]1 [Compound 13] |  |  |  | Inhibitory activity against thymidine phosphorylase (thymidine phosphorylase): inhibitory activity |
| CCOP(=O)(OCC)C(O)Cn1cc(Cn2cnc3c(=O)[nH]c(N)nc32)nn1 (stereo not shown) [Compound 16e, Diethyl 2-{4-[(2-amino-6-oxo-1,6-dihydro-9H-purin-9-yl)methyl]-1H-1,2,3-triazol-1-yl}-1-hydroxyethylphosphonate] | > 250 µM | > 250 µM | 206 ± 49 µM | melting point: > 265 °C |
| CCOP(=O)(Cn1cc(Cn2cnc3c(=O)[nH]c(N)nc32)nn1)OCC [Compound 16a, Diethyl {4-[(2-amino-6-oxo-1,6-dihydro-9H-purin-9-yl)methyl]-1H-1,2,3-triazol-1-yl}methylphosphonate] | > 250 µM | > 250 µM | > 250 µM |  |
| CCOP(=O)(COCCn1cc(Cn2cnc3c(Cl)nc(N)nc32)nn1)OCC [Compound 17h, Diethyl 2-{4-[(2-amino-6-chloro-9H-purin-9-yl)methyl]-1H-1,2,3-triazol-1-yl}-ethoxymethylphosphonate] | ≥ 250 µM | > 250 µM | > 250 µM |  |
| CCOP(=O)(CCOCCn1cc(Cn2cnc3c(Cl)nc(N)nc32)nn1)OCC [Compound 17i, Diethyl 2-{4-[(2-amino-6-chloro-9H-purin-9-yl)methyl]-1H-1,2,3-triazol-1-yl}-ethoxyethylphosphonate] | > 250 µM | > 250 µM | > 250 µM |  |
| CCOP(=O)(CCCn1cc(Cn2cnc3c(=O)[nH]c(N)nc32)nn1)OCC [Compound 16c, Diethyl 3-{4-[(2-amino-6-oxo-1,6-dihydro-9H-purin-9-yl)methyl]-1H-1,2,3-triazol-1-yl}propylphosphonate] | > 250 µM | > 250 µM | 138 ± 52 µM |  |
| CCOP(=O)(OCC)C(O)CCn1cc(Cn2cnc3c(Cl)nc(N)nc32)nn1 (stereo not shown) [Compound 17g, Diethyl 3-{4-[(2-amino-6-chloro-9H-purin-9-yl)methyl]-1H-1,2,3-triazol-1-yl}-1-hydroxypropylphosphonate] | > 250 µM | > 250 µM | > 250 µM |  |
| Nc1nc(Cl)c2ncn(Cc3cn(C[C@H](OCc4ccccc4)[C@H](O)P(=O)(OCc4ccccc4)OCc4ccccc4)nn3)c2n1 [(1R,2S)-17k, (1R,2S)-Dibenzyl 3-{4-[(2-amino-6-chloro-9H-purin-9-yl)methyl]-1H-1,2,3-triazol-1-yl}-2-benzyloxy-1-hydroxypropylphosphonate] |  |  |  | IC50 [1, 6]: 26 ± 8 µM; IC50 [2, 7]: 21 ± 2 µM; IC50 [2, 8]: 15 to 30 µM; IC50 [2, 9]: 16 to 30 µM; IC50 [3, 5]: 90 ± 33 µM |
| CCOP(=O)(CCn1cc(Cn2cnc3c(=O)[nH]c(N)nc32)nn1)OCC [Compound 16b, Diethyl 2-{4-[(2-amino-6-oxo-1,6-dihydro-9H-purin-9-yl)methyl]-1H-1,2,3-triazol-1-yl}ethylphosphonate] | > 250 µM | > 250 µM | > 250 µM |  |
| CCOP(=O)(CCCn1cc(Cn2cnc3c(Cl)nc(N)nc32)nn1)OCC [Compound 17c, Diethyl 3-{4-[(2-amino-6-chloro-9H-purin-9-yl)methyl]-1H-1,2,3-triazol-1-yl}propylphosphonate] | > 250 µM | 227 ± 32 µM | ≥ 250 µM |  |
| CCOP(=O)(CNC(=O)Cn1cc(Cn2cnc3c(=O)[nH]c(N)nc32)nn1)OCC [Compound 16j, Diethyl 2-{4-[(2-amino-6-oxo-1,6-dihydro-9H-purin-9-yl)methyl]-1H-1,2,3-triazol-1-yl}acetamidomethyphosphonate] | > 250 µM | > 250 µM | 212 ± 54 µM | melting point: > 230 °C |
| CCOP(=O)(CCCCn1cc(Cn2cnc3c(Cl)nc(N)nc32)nn1)OCC [Compound 17d, Diethyl 4-{4-[(2-amino-6-chloro-9H-purin-9-yl)methyl]-1H-1,2,3-triazol-1-yl}butylphosphonate] | > 250 µM | > 250 µM | ≥ 250 µM |  |
| CCOP(=O)(OCC)C(O)Cn1cc(Cn2cnc3c(Cl)nc(N)nc32)nn1 (stereo not shown) [Compound 17e, Diethyl 2-{4-[(2-amino-6-chloro-9H-purin-9-yl)methyl]-1H-1,2,3-triazol-1-yl}-1-hydroxyethylphosphonate] | > 250 µM | > 250 µM | > 250 µM | melting point: 174 to 175 °C |
| O=c1[nH]cc(F)c(=O)[nH]1 [5-fluorouracil, reference compound] |  |  |  | IC50 [1, 6]: 18 ± 5 µM; IC50 [2, 7]: 0.33 ± 0.17 µM; IC50 [3, 5]: 0.54 ± 0.12 µM |
| CCOP(=O)(CCOCCn1cc(Cn2cnc3c(=O)[nH]c(N)nc32)nn1)OCC [Compound 16i, Diethyl 2-{4-[(2-amino-6-oxo-1,6-dihydro-9H-purin-9-yl)methyl]-1H-1,2,3-triazol-1-yl}ethoxyethyphosphonate] | > 250 µM | > 250 µM | 210 ± 13 µM |  |
